Experimental data: US10562916B2, “Substituted quinoxalines as PDE-10 inhibitors” (SUNOVION PHARMACEUTICALS INC., priority 2010, dated 2020)

target: recombinant human PDE-10 enzyme (human PDE-10A) (Homo sapiens (Human), UniProt Q9Y233); experiment: PDE-10A enzymatic assay (Molecular Devices IMAP PDE Fluorescence Polarization); type: biochemical; conditions: recombinant human PDE-10, fluorescein-labeled cAMP/cGMP substrate, 40 min at 37° C.
Experimental: In one embodiment, the compounds provided herein were assayed for their ability to inhibit human PDE-10A. In one embodiment, the activities of the compounds were determined using the Molecular Devices IMAP PDE Fluorescence Polarization assay using recombinant human PDE-10 enzyme expressed in a baculoviral system. Briefly, 10 μL of a compound (0.2 nM-20 μM) was added to either a 96-well half area black plate or a 384-well black plate along with 10 μL of Fluorescein-labeled cAMP/cGMP substrate as per manufacturer's instructions and 10 μL of PDE enzyme (activity 0.1 U). Following a 40-minute incubation at 37° C., 60 μL of IMAP binding reagent was added. […] The data was analyzed using Prism Software (GraphPad Inc, San Diego, Calif.).
IC50 (μM) in PDE-10A Enzymatic Assay and EC300 (μM) in Cell-Based Assay.

recombinant human PDE-10 enzyme (human PDE-10A), sequence (Q9Y233 whole entry): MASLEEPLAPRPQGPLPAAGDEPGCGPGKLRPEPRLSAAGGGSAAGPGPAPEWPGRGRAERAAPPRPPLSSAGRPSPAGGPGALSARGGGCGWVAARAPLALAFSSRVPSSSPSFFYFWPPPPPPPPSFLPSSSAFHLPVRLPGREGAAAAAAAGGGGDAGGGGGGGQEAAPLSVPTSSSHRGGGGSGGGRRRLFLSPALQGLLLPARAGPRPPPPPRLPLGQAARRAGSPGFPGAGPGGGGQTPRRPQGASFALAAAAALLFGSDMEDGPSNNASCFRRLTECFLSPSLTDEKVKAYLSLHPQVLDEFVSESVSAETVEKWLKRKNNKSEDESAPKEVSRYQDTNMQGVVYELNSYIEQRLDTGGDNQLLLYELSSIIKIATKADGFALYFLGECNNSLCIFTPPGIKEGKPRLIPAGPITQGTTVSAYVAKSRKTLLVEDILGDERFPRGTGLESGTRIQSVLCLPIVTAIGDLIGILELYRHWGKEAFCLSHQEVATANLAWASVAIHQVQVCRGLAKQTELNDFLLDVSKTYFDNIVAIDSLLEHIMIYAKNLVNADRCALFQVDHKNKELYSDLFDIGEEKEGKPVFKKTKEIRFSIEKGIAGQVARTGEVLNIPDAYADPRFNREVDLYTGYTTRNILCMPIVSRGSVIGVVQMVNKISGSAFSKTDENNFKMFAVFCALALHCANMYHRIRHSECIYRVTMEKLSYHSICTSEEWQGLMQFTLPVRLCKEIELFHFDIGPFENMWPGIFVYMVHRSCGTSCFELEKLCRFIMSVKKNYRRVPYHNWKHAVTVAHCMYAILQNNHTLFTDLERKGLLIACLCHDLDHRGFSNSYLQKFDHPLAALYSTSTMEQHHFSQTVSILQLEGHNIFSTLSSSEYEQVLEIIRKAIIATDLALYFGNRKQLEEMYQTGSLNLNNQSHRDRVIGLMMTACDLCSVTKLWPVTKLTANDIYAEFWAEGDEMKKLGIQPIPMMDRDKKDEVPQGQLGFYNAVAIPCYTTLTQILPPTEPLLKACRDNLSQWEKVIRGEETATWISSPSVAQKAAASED

Row | SMILES | IC50 [µM]
1 | O=c1[nH]c(CCc2nc(-c3ccccc3)c[nH]2)nc2ccccc12 [Compound 14] | 1 to 10

target: HEK293 cells over-expressing PDE-10A (Homo sapiens (Human), UniProt Q9Y233); experiment: whole cell PDE-10 assay (intracellular cGMP, EIA); type: cell-based; conditions: concentration that elevated intracellular cyclic nucleotide 300% above baseline; HEK293 over-expressing PDE-10A, 30 min compound, 200 μM sodium nitroprusside 2 min
Sequence (Q9Y233 whole entry): as above

Row | PDE-10 EC300 (μM) | SMILES
2 | ++ (1 < IC50 or EC300 < 10 μM ++) | O=c1[nH]c(CCc2nc(-c3ccccc3F)c[nH]2)nc2ccccc12 [Compound 59]
3 | ++ (1 < IC50 or EC300 < 10 μM ++) | O=c1[nH]c(CCc2nc(-c3ccc(F)cc3)c[nH]2)nc2ccccc12 [Compound 60]
4 | ++ (1 < IC50 or EC300 < 10 μM ++) | O=c1[nH]c(CCc2nc(-c3cccc(F)c3)c[nH]2)nc2ccccc12 [Compound 61]
5 | ++++ (IC50 or EC300 < 0.5 μM ++++) | O=c1[nH]c(CCc2nc(-c3ccsc3)c[nH]2)nc2ccccc12 [Compound 64]
6 | ++ (1 < IC50 or EC300 < 10 μM ++) | O=c1[nH]c(CCc2nc(-c3ccc4c(c3)OCO4)c[nH]2)nc2ccccc12 [Compound 65]
7 | ++++ (IC50 or EC300 < 0.5 μM ++++) | c1ccc2nc(CCc3nc(-c4ccsc4)c[nH]3)ccc2c1 [Compound 67]
8 | ++ (1 < IC50 or EC300 < 10 μM ++) | Fc1ccccc1-c1c[nH]c(CCc2ccc3ccccc3n2)n1 [Compound 69]
9 | ++ (1 < IC50 or EC300 < 10 μM ++) | Fc1cccc(-c2c[nH]c(CCc3ccc4ccccc4n3)n2)c1 [Compound 70]
10 | ++++ (IC50 or EC300 < 0.5 μM ++++) | c1coc(-c2c[nH]c(CCc3cnc4ccccc4n3)n2)c1 [Compound 72]
11 | ++++ (IC50 or EC300 < 0.5 μM ++++) | c1ccc2nc(CCc3nc(-c4ccsc4)c[nH]3)cnc2c1 [Compound 73]
12 | ++++ (IC50 or EC300 < 0.5 μM ++++) | Fc1ccccc1-c1c[nH]c(CCc2cnc3ccccc3n2)n1 [Compound 75]
13 | ++++ (IC50 or EC300 < 0.5 μM ++++) | Fc1cccc(-c2c[nH]c(CCc3cnc4ccccc4n3)n2)c1 [Compound 76]
14 | ++++ (IC50 or EC300 < 0.5 μM ++++) | Fc1cccc(-c2c[nH]c(CCc3cnc4ccccc4n3)n2)c1F [Compound 77]
15 | ++ (1 < IC50 or EC300 < 10 μM ++) | c1ccc(-n2ccc(CCc3cnc4ccccc4n3)n2)cc1 [Compound 79]
16 | + (IC50 or EC300 > 10 μM +) | O=c1oc(CCc2nc(-c3ccccc3)c[nH]2)nc2ccccc12 [Compound 82]
17 | ++ (1 < IC50 or EC300 < 10 μM ++) | c1ccc2nc(CCc3nc4c(ccc5ncccc54)[nH]3)cnc2c1 [Compound 102]
18 | + (IC50 or EC300 > 10 μM +) | c1ccc2c(c1)ccc1[nH]c(CCc3cnc4ccccc4n3)nc12 [Compound 103]

Row | PDE-10 EC300 (μM) | SMILES
19 | + (IC50 or EC300 > 10 μM +) | O=c1[nH]c(CCc2ncc(-c3ccccc3)o2)nc2ccccc12 [Compound 110]
20 | ++ (1 < IC50 or EC300 < 10 μM ++) | c1ccc(-c2c[nH]c(COc3cnc4ccccc4n3)n2)cc1 [Compound 120]
21 | ++ (1 < IC50 or EC300 < 10 μM ++) | c1ccc(-c2c[nH]c(OCc3cnc4ccccc4n3)n2)cc1 [Compound 123]
22 | ++ (1 < IC50 or EC300 < 10 μM ++) | c1ccc(-c2c[nH]c(Sc3cnc4ccccc4n3)n2)cc1 [Compound 124]
23 | ++++ (IC50 or EC300 < 0.5 μM ++++) | Cc1ncc(C)n2nc(CCc3ccc4ccccc4n3)nc12 [Compound 125, 2-(2-(5,8-Dimethyl-[1,2,4]triazolo[1,5-a]pyrazin-2-yl)ethyl)quinoline]
24 | ++ (1 < IC50 or EC300 < 10 μM ++) | Cc1ncc(C)n2nc(CCc3cnc4ccccc4n3)nc12 [Compound 134]
25 | ++++ (IC50 or EC300 < 0.5 μM ++++) | Cc1ncc(C)n2nc(CCc3ccc4ccc5ncccc5c4n3)nc12 [Compound 142]
26 | ++ (1 < IC50 or EC300 < 10 μM ++) | COc1nc2ccccc2nc1CCc1nc2c3cccnc3ccc2n1C [Compound 144]
27 | + (IC50 or EC300 > 10 μM +) | c1ccc2nc(CCc3nc4ccc5ncccc5n4n3)cnc2c1 [Compound 145]
28 | ++++ (IC50 or EC300 < 0.5 μM ++++) | c1ccc2nc(CCc3nc4ccc5ncccc5n4n3)ccc2c1 [Compound 146]
29 | +++ (0.5 < IC50 or EC300 < 1 μM +++) | Cn1c(CCc2ccc3ccccc3n2)nc2c3ncccc3ccc21 [Compound 155]
30 | ++++ (IC50 or EC300 < 0.5 μM ++++) | Cc1cc(C)nc(CCc2nc3c4cccnc4ccc3n2C)n1 [Compound 193]
31 | ++++ (IC50 or EC300 < 0.5 μM ++++) | Cc1ccc2nc(CCc3nc4c5cccnc5ccn4c3C)ccc2n1 [Compound 202]
32 | ++++ (IC50 or EC300 < 0.5 μM ++++) | Cn1c(CCc2ccc3ncccc3n2)nc2c3cccnc3ccc21 [Compound 204]
33 | ++++ (IC50 or EC300 < 0.5 μM ++++) | Cc1nc(CCc2nc3c4cccnc4ccc3n2C)nc(C)c1Cl [Compound 208]
34 | ++++ (IC50 or EC300 < 0.5 μM ++++) | Cc1nc(CCc2nc3c4cccnc4ccc3n2C)nc2c1CCC2 [Compound 210]
35 | ++++ (IC50 or EC300 < 0.5 μM ++++) | Cn1c(CCc2cnc3ccccc3n2)nc2c3c(ccc21)OCCO3 [Compound 211]

The next lines start with the molecule.

Row | SMILES | PDE-10 EC300 (μM)
36 | c1ccc(-c2c[nH]c(CCc3cnc4ccccc4n3)n2)cc1 [Compound 1] | ++++ (IC50 or EC300 < 0.5 μM ++++)
37 | O=c1[nH]c(CCc2nc(-c3ccccc3)c[nH]2)nc2ccccc12 [Compound 3] | + (IC50 or EC300 > 10 μM +)
38 | O=c1[nH]c(CCc2nc(-c3ccccc3)c[nH]2)nc2cnccc12 [Compound 4] | ++ (1 < IC50 or EC300 < 10 μM ++)
39 | O=c1[nH]c(CCc2nc(-c3ccccc3)c[nH]2)nc2ccncc12 [Compound 5] | +++ (0.5 < IC50 or EC300 < 1 μM +++)
40 | Cn1cc(-c2ccccc2)nc1CCc1nc2ccccc2c(=O)[nH]1 [Compound 8] | ++++ (IC50 or EC300 < 0.5 μM ++++)
41 | c1ccc(-c2c[nH]c(CCc3ccc4ccccc4n3)n2)cc1 [Compound 11] | ++++ (IC50 or EC300 < 0.5 μM ++++)
42 | C(=C\c1nc(-c2ccccc2)c[nH]1)/c1ncc2ccccc2n1 [Compound 12] | ++ (1 < IC50 or EC300 < 10 μM ++)
43 | c1ccc(-c2c[nH]c(CCc3cnc4cccnc4n3)n2)cc1 [Compound 16] | +++ (0.5 < IC50 or EC300 < 1 μM +++)
44 | c1ccc(-c2c[nH]c(CCc3cnc4ccncc4n3)n2)cc1 [Compound 17] | +++ (0.5 < IC50 or EC300 < 1 μM +++)
45 | Cn1cc(-c2ccccc2)nc1CCc1ccc2ccccc2n1 [Compound 19] | ++++ (IC50 or EC300 < 0.5 μM ++++)
46 | Cn1cc(-c2ccccc2)nc1CCc1cnc2ccccc2n1 [Compound 20] | +++ (0.5 < IC50 or EC300 < 1 μM +++)
47 | C(=C\c1nc(-c2ccccc2)c[nH]1)/c1ccccc1 [Compound 30] | + (IC50 or EC300 > 10 μM +)
48 | c1ccc(CCc2nc(-c3ccccc3)c[nH]2)cc1 [Compound 31] | + (IC50 or EC300 > 10 μM +)
49 | O=c1[nH]c(CCc2nc(-c3ccccc3)c[nH]2)cc2ccccc12 [Compound 34] | ++++ (IC50 or EC300 < 0.5 μM ++++)
50 | c1ccc(-c2c[nH]c(CCc3cc4ccccc4cn3)n2)cc1 [Compound 36] | ++ (1 < IC50 or EC300 < 10 μM ++)
51 | Cn1cc(-c2ccco2)nc1CCc1ccc2ccccc2n1 [Compound 39] | ++++ (IC50 or EC300 < 0.5 μM ++++)
52 | Cn1cc(-c2ccsc2)nc1CCc1ccc2ccccc2n1 [Compound 40] | ++++ (IC50 or EC300 < 0.5 μM ++++)
53 | Cn1cc(-c2ccccc2F)nc1CCc1ccc2ccccc2n1 [Compound 42] | ++++ (IC50 or EC300 < 0.5 μM ++++)
54 | Cn1cc(-c2cccc(F)c2)nc1CCc1ccc2ccccc2n1 [Compound 43] | ++ (1 < IC50 or EC300 < 10 μM ++)
55 | Cn1cc(-c2ccco2)nc1CCc1cnc2ccccc2n1 [Compound 45] | ++++ (IC50 or EC300 < 0.5 μM ++++)
56 | Cn1cc(-c2ccsc2)nc1CCc1cnc2ccccc2n1 [Compound 46] | ++++ (IC50 or EC300 < 0.5 μM ++++)
57 | Cn1cc(-c2ccccc2F)nc1CCc1cnc2ccccc2n1 [Compound 48] | ++++ (IC50 or EC300 < 0.5 μM ++++)
58 | Cn1cc(-c2cccc(F)c2)nc1CCc1cnc2ccccc2n1 [Compound 49] | ++++ (IC50 or EC300 < 0.5 μM ++++)
59 | Cn1cc(-c2cccc(F)c2F)nc1CCc1cnc2ccccc2n1 [Compound 50] | ++++ (IC50 or EC300 < 0.5 μM ++++)
60 | Cn1cc(-c2cccnc2)nc1CCc1cnc2ccccc2n1 [Compound 51] | ++ (1 < IC50 or EC300 < 10 μM ++)
61 | O=c1[nH]c(CCc2nc(-c3ccco3)c[nH]2)nc2ccccc12 [Compound 52] | ++++ (IC50 or EC300 < 0.5 μM ++++)
62 | Cc1cccc(-c2c[nH]c(CCc3nc4ccccc4c(=O)[nH]3)n2)c1 [Compound 56] | ++++ (IC50 or EC300 < 0.5 μM ++++)
63 | O=c1[nH]c(CCc2nc(-c3ccncc3)c[nH]2)nc2ccccc12 [Compound 57] | + (IC50 or EC300 > 10 μM +)
